According to ChEMBL document CHEMBL1201862, “PubChem BioAssay data set” (2004):
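Compound exposure: 48 hours, 5 concentrations, 96-well plates. GI50 is the concentration that inhibits growth by half.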 The source made the active and inactive calls. No stated cut-off is given here; in the data, active = GI50 up to about 1.1 µM and inactive = higher.

What was measured:
Test in all cases: NCI tumour cell line growth inhibition, 48 h
[1] = system: T47D
[2] = system: HCC 2998
[3] = system: MDA-N
[4] = system: K562
[5] = system: SNB-19
[6] = system: OVCAR-8
[7] = system: OVCAR-5
[8] = system: MDA-MB-435
[9] = system: HT-29
[10] = system: UACC-257
[11] = system: 786-0
[12] = system: SK-MEL-28
[13] = system: HOP-92
[14] = system: SK-MEL-2
[15] = system: DU-145
[16] = system: Malme-3M
[17] = system: NCI-H23
[18] = system: NCI-H460
[19] = system: RPMI-8226
[20] = system: U-251

| SMILES | GI50 [1] | GI50 [2] | GI50 [3] | GI50 [4] | GI50 [5] | GI50 [6] | GI50 [7] | GI50 [8] | GI50 [9] | GI50 [10] | GI50 [11] | GI50 [12] | GI50 [13] | GI50 [14] | GI50 [15] | GI50 [16] | GI50 [17] | GI50 [18] | GI50 [19] | GI50 [20] |
| --- | --- | --- | --- | --- | --- | --- | --- | --- | --- | --- | --- | --- | --- | --- | --- | --- | --- | --- | --- | --- |
| CN(C)c1ccc(C2C(Cl)C(=O)N2NC(=O)c2c(Cl)c(Cl)c(Cl)c(Cl)c2-c2nc3ccccc3[nH]2)cc1 (stereo unspecified) | 6.62 µM (inactive) | 16.3 µM (inactive) | 5.77 µM (inactive) | 4.44 µM (inactive) | 30.3 µM (inactive) | 2.4 µM (inactive) | 31.3 µM (inactive) | 4.76 µM (inactive) | 22.3 µM (inactive) | 20.5 µM (inactive) | 2.56 µM (inactive) | 28.1 µM (inactive) | 5.4 µM (inactive) | 21.8 µM (inactive) | 6.92 µM (inactive) | 16.3 µM (inactive) | 12.5 µM (inactive) | – | – | – |
| O=[N+]([O-])c1cc2c(cc1/C=N/n1c(CO)nc3ccccc31)OCO2 | > 100 µM (inactive) | – | > 100 µM (inactive) | > 100 µM (inactive) | > 100 µM (inactive) | > 100 µM (inactive) | > 100 µM (inactive) | > 100 µM (inactive) | > 100 µM (inactive) | > 100 µM (inactive) | > 100 µM (inactive) | > 100 µM (inactive) | > 100 µM (inactive) | > 100 µM (inactive) | > 100 µM (inactive) | > 100 µM (inactive) | > 100 µM (inactive) | > 100 µM (inactive) | > 100 µM (inactive) | > 100 µM (inactive) |
| CCCCN(CCCC)C1(c2cc3ccccc3s2)CCCCC1.[O-][Cl+3]([O-])([O-])O | 16.2 µM (inactive) | 14.1 µM (inactive) | 15.4 µM (inactive) | 16.7 µM (inactive) | 18.7 µM (inactive) | 18.7 µM (inactive) | 18.4 µM (inactive) | 13.3 µM (inactive) | 13.1 µM (inactive) | 18.1 µM (inactive) | 13.7 µM (inactive) | 18.4 µM (inactive) | 12.5 µM (inactive) | 19.8 µM (inactive) | 16.3 µM (inactive) | – | 15.5 µM (inactive) | 13.5 µM (inactive) | – | 17.3 µM (inactive) |
| CCOC(=O)c1nc2ccc(C(F)(F)F)cc2nc1Nc1ccc(OC)c(OC)c1 | > 100 µM (inactive) | > 100 µM (inactive) | > 100 µM (inactive) | > 100 µM (inactive) | 31.7 µM (inactive) | > 100 µM (inactive) | > 100 µM (inactive) | > 100 µM (inactive) | > 100 µM (inactive) | > 100 µM (inactive) | 26.5 µM (inactive) | > 100 µM (inactive) | 65.2 µM (inactive) | – | > 100 µM (inactive) | > 100 µM (inactive) | > 100 µM (inactive) | > 100 µM (inactive) | > 100 µM (inactive) | – |
| O=C(Nc1ccc(Cl)cc1Cl)C1C(=O)OC2(CCCCC2)OC1=O | 12.5 µM (inactive) | 13 µM (inactive) | 15.7 µM (inactive) | 4.72 µM (inactive) | 5.26 µM (inactive) | 5.7 µM (inactive) | 9.12 µM (inactive) | 8.2 µM (inactive) | 11.5 µM (inactive) | 12.1 µM (inactive) | 12.2 µM (inactive) | 5.77 µM (inactive) | 6.82 µM (inactive) | 2.93 µM (inactive) | 10.5 µM (inactive) | – | 4.4 µM (inactive) | 8.99 µM (inactive) | 4.16 µM (inactive) | 5.32 µM (inactive) |
| O=C(NCCO)Nc1c(C(F)(F)F)cc(-c2ccccc2)[nH]c1=O | > 100 µM (inactive) | > 100 µM (inactive) | > 100 µM (inactive) | > 100 µM (inactive) | > 100 µM (inactive) | > 100 µM (inactive) | > 100 µM (inactive) | > 100 µM (inactive) | > 100 µM (inactive) | > 100 µM (inactive) | > 100 µM (inactive) | > 100 µM (inactive) | > 100 µM (inactive) | > 100 µM (inactive) | > 100 µM (inactive) | – | > 100 µM (inactive) | > 100 µM (inactive) | > 100 µM (inactive) | > 100 µM (inactive) |
| CC1(C)C2CCC3=C(CCC4(C)C5C[C@](C)(C(=O)O)CC[C@]5(C)CC[C@]34C)[C@@]2(C)CC[C@@H]1O (stereo partly specified) | 18 µM (inactive) | 64.9 µM (inactive) | 18.8 µM (inactive) | 16.6 µM (inactive) | > 10 µM (inactive) | – | 49.8 µM (inactive) | 23.7 µM (inactive) | 17.5 µM (inactive) | – | 15.9 µM (inactive) | 17.5 µM (inactive) | 18.6 µM (inactive) | – | 18.3 µM (inactive) | 17.1 µM (inactive) | 19.3 µM (inactive) | 15.2 µM (inactive) | 20.9 µM (inactive) | 13.1 µM (inactive) |
| CC(=O)Nc1ccc(-c2nc3ccccc3s2)cc1Br | 0.687 µM (active) | 0.29 µM (active) | > 100 µM (inactive) | > 100 µM (inactive) | 37.5 µM (inactive) | 31 µM (inactive) | – | > 100 µM (inactive) | > 63.7 µM (inactive) | > 100 µM (inactive) | 35.6 µM (inactive) | > 100 µM (inactive) | 46 µM (inactive) | > 100 µM (inactive) | 48.2 µM (inactive) | > 62.1 µM (inactive) | 27.4 µM (inactive) | > 92.5 µM (inactive) | > 92.9 µM (inactive) | 46 µM (inactive) |
